Results on five compounds are retold here after ChEMBL document CHEMBL1141801, “N-(jasmonoyl)tyrosine-derived compounds from flowers of broad beans (Vicia faba)” (J Nat Prod, 2005).

The target in test [1] is T1, Tyrosinase (Agaricus bisporus) (UniProt O42713).
T1 sequence (whole entry): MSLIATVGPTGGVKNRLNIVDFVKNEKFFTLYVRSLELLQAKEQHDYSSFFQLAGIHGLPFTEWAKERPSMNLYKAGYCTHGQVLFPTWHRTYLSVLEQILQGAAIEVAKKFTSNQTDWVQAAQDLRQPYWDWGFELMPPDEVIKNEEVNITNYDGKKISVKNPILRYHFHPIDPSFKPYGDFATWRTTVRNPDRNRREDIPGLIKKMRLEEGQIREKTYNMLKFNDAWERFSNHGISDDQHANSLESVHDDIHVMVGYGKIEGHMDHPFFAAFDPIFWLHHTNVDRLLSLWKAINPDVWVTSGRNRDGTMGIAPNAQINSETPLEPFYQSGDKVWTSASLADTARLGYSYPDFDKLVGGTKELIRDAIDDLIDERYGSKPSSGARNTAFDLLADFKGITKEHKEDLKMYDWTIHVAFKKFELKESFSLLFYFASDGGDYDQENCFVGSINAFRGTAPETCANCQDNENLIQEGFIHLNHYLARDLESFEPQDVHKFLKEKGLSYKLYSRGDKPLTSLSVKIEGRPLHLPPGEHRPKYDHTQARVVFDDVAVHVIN
Nature of the test: Activity of mushroom tyrosinase assessed as specific activity pkat per mg of protein.

The subject of test [2] is Eschscholzia californica. Kind of test: Elicitor activity in Eschscholzia californica Cham. assessed as elicitation of chelirubine formation at 30 uM. The test is classed as functional, organism-based.
Test [3] has as its system Eschscholzia californica. Kind of test: Elicitor activity in Eschscholzia californica Cham. assessed as elicitation of chelirubine formation at 300 uM. The test is classed as functional, organism-based.
For test [4], the system named is Eschscholzia californica. Nature of the test: Elicitor activity in Eschscholzia californica Cham. assessed as elicitation of chelirubine formation. The test is classed as functional, organism-based.

Active and inactive are the calls of the source. The calls are words filed in the database; no cut-off is given here.

As to `N[C@@H](Cc1ccc(O)cc1)C(=O)O`, the Activity in test [1] stood at 15600.

For the compound `CC/C=C\CC1C(=O)CCC1CC(=O)N[C@@H](Cc1ccc(O)cc1)C(=O)O` (mixture of isomers), the Activity in test [1] is 2320.

As to `CC/C=C\CC1C(=O)CCC1CC(=O)NCCc1ccc(O)c(O)c1` (racemic), the outcome in the test with Eschscholzia californica [2] and in the test on Eschscholzia californica [3] was Active.

For `CC/C=C\CC1C(=O)CCC1CC(=O)NCCc1ccc(O)cc1` (racemic), in test [1], the Activity came to 5630. In addition, the outcome in the test with Eschscholzia californica [2] and with Eschscholzia californica [3] was Active.

On to `CC/C=C\CC1C(=O)CCC1CC(=O)O` (racemic), for which the result with Eschscholzia californica [4] was Active.
